Test results taken from PubChem BioAssay (NCI).
Several values for one entry are separate records, joined by “and”; a condition that tells them apart may be missing. Identical values can stand only once.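 Cultured in 96-well plates, cells were exposed to test compound for 48 hours across five concentrations. The concentration for 50% growth inhibition is given as GI50. The concentration for full growth arrest is given as TGI.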 Where a SMILES comes first, the peptide text is derived from it. The star is where a group is joined. Boc = CC(C)(C)OC(=O)*

Columns and labels:
Test in all cases: NCI tumour cell line growth inhibition, 48 h
EKVX NSCLC = test system: EKVX NSCLC
K-562 leukemia = test system: K-562 leukemia
NCI-H460 lung = test system: NCI-H460 lung
NCI-H23 lung = test system: NCI-H23 lung
CCRF-CEM leukemia = test system: CCRF-CEM leukemia
HOP-62 NSCLC = test system: HOP-62 NSCLC
SNB-19 CNS = test system: SNB-19 CNS
HOP-92 NSCLC = test system: HOP-92 NSCLC
SN12C renal = test system: SN12C renal
HS 578T breast = test system: HS 578T breast

Compound | TGI (EKVX NSCLC) | TGI (K-562 leukemia) | TGI (NCI-H460 lung) | TGI (NCI-H23 lung) | TGI (CCRF-CEM leukemia) | TGI (HOP-62 NSCLC) | TGI (SNB-19 CNS) | TGI (HOP-92 NSCLC) | TGI (SN12C renal) | GI50 (K-562 leukemia) | GI50 (NCI-H460 lung) | GI50 (SNB-19 CNS) | GI50 (NCI-H23 lung) | GI50 (CCRF-CEM leukemia) | GI50 (HOP-62 NSCLC) | GI50 (HOP-92 NSCLC) | GI50 (HS 578T breast) | TGI (HS 578T breast) | GI50 (SN12C renal) | GI50 (EKVX NSCLC)
C[C@]12CCC(=O)C=C1CC[C@@H]1C2CC[C@]2(C)Nc3[nH]ncc3CC12 (stereo partly specified) | > 100 µM | > 100 µM | > 100 µM | > 100 µM | > 100 µM | > 100 µM | – | – | – | – | – | – | – | – | – | – | – | – | – | –
CCN(CC)CCSc1c2ccccc2nc2c(OC)ccc(OC)c12 | > 100 µM | > 24.5 µM | 36.4 µM | 27.9 µM | > 68.9 µM | > 70.2 µM | > 100 µM | 7.57 µM | > 39.3 µM | – | – | – | – | – | – | – | – | – | – | –
COc1ccc(-c2nsc3c2NC(=O)CC3c2cccc(OC)c2)cc1 (stereo unspecified) | – | > 100 µM | 71.8 µM | > 100 µM | > 100 µM | 33.9 µM | > 100 µM | 43 µM | > 100 µM | 358 nM | 534 nM | 3470 nM | 2590 nM | 2080 nM | 2410 nM | 2310 nM | 1340 nM | 16.9 µM | 3810 nM | –
CCCCCCCN=C(N)c1ccc(N2CCN(c3ccc(C(N)=NCCCCCCC)cc3)CC2)cc1 | 2.94 µM | > 9.41 µM | > 80.8 µM | – | > 100 µM | > 100 µM | 17.4 µM | > 100 µM | 14.7 µM | 147 nM | – | 643 nM | – | 1100 nM | 2500 nM | 463 nM | – | – | 1080 nM | 0.175 µM
C#Cc1nc(Nc2cc(C)[nH]n2)c2ccccc2n1 | – | > 100 µM | 1.43 µM | 3.59 µM | 1.31 µM | – | 81.1 µM | 1.25 µM | 0.726 µM | 349 nM | 346 nM | 2270 nM | 553 nM | 248 nM | – | 293 nM | 318 nM | > 46.2 µM | 236 nM | –
COC(=O)C(C)NC(=O)C(CCSC)NC(=O)C(Cc1ccccc1)NC(=O)OC(C)(C)C (stereo not drawn) (Boc-Phe-Met-Ala-OMe; configuration not given here) | – | 91.2 µg/mL | > 100 µM | > 100 µM | – | > 100 µM | > 100 µM | > 100 µM | 71.8 µg/mL and > 100 µM | 32.7 µg/mL | 40.6 µg/mL | – | 41.9 µg/mL | 2.63 µg/mL | – | – | – | > 100 µM | 25.4 µg/mL | –
COC12OCCN(C)C1=CC(=O)C1=NNC(C)C12 (stereo unspecified) | > 100 µM | > 100 µM | > 100 µM | > 100 µM | > 100 µM | – | – | > 100 µM | > 100 µM | – | – | – | – | – | – | – | – | – | – | –
CC(C(=O)O)c1cccc(Oc2ccccc2)c1 (stereo unspecified) | > 100 µM | > 100 µM | > 100 µM | > 100 µM | > 100 µM | > 100 µM | > 100 µM | – | > 100 µM | > 100000 nM | > 100000 nM | > 100000 nM | > 100000 nM | > 100000 nM | > 100000 nM | – | > 100000 nM | > 100 µM | > 100000 nM | > 100 µM
O=C1CCC(=O)c2c1c(O)c1ccncc1c2O | 47.6 µM | 44 µM | 30.7 µM | 31.9 µM | 39.4 µM | 69 µM | 89.2 µM | 38.1 µM | 31.6 µM | – | – | – | – | – | – | – | – | – | – | –
[N-]=[N+]=N/C1=C/CCCCC(=O)C1 | > 100 µM | > 100 µM | > 100 µM | > 100 µM | > 100 µM | > 100 µM | > 100 µM | > 100 µM | > 100 µM | – | – | – | – | – | – | – | – | – | – | –
Clc1nc(Cl)nc(Nc2cccc3ccccc23)n1 | – | > 100 µM | > 100 µM | > 100 µM | > 100 µM | > 100 µM | > 100 µM | – | > 100 µM | 40800 nM | > 100000 nM | > 100000 nM | > 100000 nM | 33400 nM | > 100000 nM | – | > 100000 nM | > 100 µM | > 100000 nM | –
COc1ccc(-c2cc(/C=C/C(=O)c3ccc(OC)c(OC)c3)[nH]n2)cc1 | – | 10.7 µM | 4.34 µM | 6.33 µM | 4.14 µM | 6.17 µM | 5.28 µM | – | 3.78 µM | 1280 nM | 1640 nM | 1880 nM | 2470 nM | 1340 nM | 2350 nM | – | 3380 nM | 29 µM | 1640 nM | –
CN(C)CCSc1cc(-c2ccccc2)c2ccccc2n1 | 30.3 µM | 23.5 µM | – | 23.1 µM | 33.3 µM | 22.9 µM | 28.5 µM | – | 32.2 µM | – | – | – | – | – | – | – | – | 21.9 µM | – | –
Cc1ccc(S(=O)OCc2c(C)c(C)c(COS(=O)c3ccc(C)cc3)c(C)c2C)cc1 (stereo unspecified) | > 100 µM | > 100 µM | > 100 µM | > 100 µM | – | > 100 µM | > 100 µM | > 100 µM | > 100 µM | – | – | – | – | – | – | – | – | – | – | –
COc1cccc2c1C(=O)c1c(O)c3c(c(O)c1C2=O)C[C@@](O)(/C(C)=N/NC(=O)c1ccc(Cl)cc1)C[C@@H]3OC1CC(N)C(O)C(C)O1 (stereo partly specified) | – | – | – | 1.12 µM | 2.32 µM | 1.94 µM | 1.9 µM | 0.751 µM | 3 µM | – | – | 162 nM | 194 nM | 90.3 nM | 215 nM | 192 nM | 369 nM | 2.52 µM | 156 nM | –
CCOC(=O)c1c(-c2ccc(OC)cc2)c(C#N)c2c(C#N)c(N)nn2c1N | > 100 µM | > 100 µM | 30.9 µM | > 100 µM | > 100 µM | 22.1 µM | 22.5 µM | – | 49 µM | 1180 nM | 3670 nM | 4010 nM | 4690 nM | 2460 nM | 3320 nM | – | 2960 nM | 27.6 µM | 4000 nM | 4.8 µM
CCOC(=O)c1ccc(N=Nc2cc(C(=O)OCC)ccc2O)cc1 | 41.8 µM | > 100 µM | > 100 µM | > 100 µM | > 100 µM | > 100 µM | – | > 100 µM | > 100 µM | – | – | – | – | – | – | – | – | – | – | –
O=[N+]([O-])c1ccc(CI)cc1 | – | 2.95 µM | 10.5 µM | 12.4 µM | 2.59 µM | 12.5 µM | 14.4 µM | 16.5 µM | 5.39 µM | 404 nM | 3200 nM | 3030 nM | 3320 nM | 518 nM | 3380 nM | 4250 nM | 3530 nM | 24.2 µM | 2000 nM | –
